The values that follow come from patent US10045981B2, “Selective kinase inhibitors” (JAKPHARM, LLC, priority 2015, dated 2018).

Each structure is given as a SMILES string. Where two headings read alike, the source gives them in different places. Marks after values point to notes of the source that are not given here.

Series [1] concerns the target T1, JAK3 (Homo sapiens, UniProt P52333).
T1 sequence (P52333 1-1124): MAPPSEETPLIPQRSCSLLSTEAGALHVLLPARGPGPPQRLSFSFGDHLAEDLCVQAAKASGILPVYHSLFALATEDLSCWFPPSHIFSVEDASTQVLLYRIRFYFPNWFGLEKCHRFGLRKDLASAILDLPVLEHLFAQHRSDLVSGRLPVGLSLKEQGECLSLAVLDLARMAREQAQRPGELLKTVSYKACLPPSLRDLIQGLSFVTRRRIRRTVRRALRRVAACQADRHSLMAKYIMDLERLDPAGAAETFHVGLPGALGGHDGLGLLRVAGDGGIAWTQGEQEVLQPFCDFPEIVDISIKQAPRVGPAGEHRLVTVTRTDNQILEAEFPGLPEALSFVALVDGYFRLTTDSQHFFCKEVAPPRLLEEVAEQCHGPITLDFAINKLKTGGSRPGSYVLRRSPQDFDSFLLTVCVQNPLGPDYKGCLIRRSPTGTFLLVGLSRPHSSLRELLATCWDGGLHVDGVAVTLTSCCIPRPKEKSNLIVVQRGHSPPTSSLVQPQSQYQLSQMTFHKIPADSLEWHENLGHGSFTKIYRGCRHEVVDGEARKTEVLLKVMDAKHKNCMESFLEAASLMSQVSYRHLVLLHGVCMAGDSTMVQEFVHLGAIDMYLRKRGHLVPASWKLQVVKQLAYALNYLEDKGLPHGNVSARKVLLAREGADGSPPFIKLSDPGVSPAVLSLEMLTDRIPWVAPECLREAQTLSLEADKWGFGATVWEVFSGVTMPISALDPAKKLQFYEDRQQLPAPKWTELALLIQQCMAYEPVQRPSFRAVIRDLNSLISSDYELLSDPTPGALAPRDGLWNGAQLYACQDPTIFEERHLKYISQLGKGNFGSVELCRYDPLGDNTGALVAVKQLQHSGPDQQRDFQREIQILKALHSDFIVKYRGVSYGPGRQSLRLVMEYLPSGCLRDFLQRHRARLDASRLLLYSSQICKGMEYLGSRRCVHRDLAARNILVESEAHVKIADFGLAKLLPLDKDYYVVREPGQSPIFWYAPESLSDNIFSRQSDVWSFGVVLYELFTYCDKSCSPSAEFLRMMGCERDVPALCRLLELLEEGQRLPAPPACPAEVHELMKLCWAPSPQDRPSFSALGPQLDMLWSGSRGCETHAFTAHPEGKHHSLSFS
Kind of series: JAK3 biochemical IC50. As to conditions: for JAK3 selectivity vs. STAT5: STAT5 IC50 relative to JAK3 IC50; for selectivity for JAK3 compared to JAK1, JAK2, and TYK2 (in words): two independent analyses.

A further series deals with JAK1 (Homo sapiens, UniProt P23458). Kind of series: JAK1 IC50. Type of series: biochemical.
Another series addresses EGFR (G719C) (Homo sapiens, UniProt P00533, G719C). Kind of series: Exemplary Kinase Panel Analysis. It counts as biochemical. To be noted: 10 concentrations, 3-fold serial dilutions starting at 5 μM, duplicate. The method, then: Kinase Panel: These compounds were tested against 439 kinases. […]. […] The results are presented in Table 2 below, where empty cells indicate no inhibition or compound activity that could not be fit to an IC50 curve.

Another series addresses T2, ITK (Homo sapiens, UniProt Q08881).
T2 sequence (Q08881 1-620): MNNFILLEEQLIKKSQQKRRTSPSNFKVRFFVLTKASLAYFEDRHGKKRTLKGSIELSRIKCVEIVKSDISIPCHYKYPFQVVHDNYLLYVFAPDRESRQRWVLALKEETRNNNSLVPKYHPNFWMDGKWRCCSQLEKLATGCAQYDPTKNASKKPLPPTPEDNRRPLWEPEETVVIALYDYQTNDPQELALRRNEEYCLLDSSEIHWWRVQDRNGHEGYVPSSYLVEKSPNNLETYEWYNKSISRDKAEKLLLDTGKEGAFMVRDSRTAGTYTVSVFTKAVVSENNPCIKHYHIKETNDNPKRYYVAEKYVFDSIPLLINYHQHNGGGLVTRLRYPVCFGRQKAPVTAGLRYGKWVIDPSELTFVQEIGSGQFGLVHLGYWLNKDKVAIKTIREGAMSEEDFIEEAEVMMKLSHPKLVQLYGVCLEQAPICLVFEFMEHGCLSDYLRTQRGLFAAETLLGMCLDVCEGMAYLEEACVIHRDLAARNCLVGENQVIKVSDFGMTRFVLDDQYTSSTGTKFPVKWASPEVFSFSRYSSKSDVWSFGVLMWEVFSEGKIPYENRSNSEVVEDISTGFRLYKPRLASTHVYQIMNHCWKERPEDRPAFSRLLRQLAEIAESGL
Kind of series: Exemplary Kinase Panel Analysis. Type of series: biochemical. As to conditions: 10 concentrations, 3-fold serial dilutions starting at 5 μM, duplicate.

In series [2] the target is T1, JAK3. The series is described as follows: Exemplary Kinase Panel Analysis. It counts as biochemical. As to conditions: 10 concentrations, 3-fold serial dilutions starting at 5 μM, duplicate.
The target in another series is CYP2C19 (Homo sapiens, UniProt P33261). The series is described as follows: CYP2C19 inhibition LCMS. Type of series: in vitro ADME.
Series [3] is described as follows: Mouse Plasma protein binding. Type of series: in vitro ADME.
Series [4] is described as follows: Cytotoxicity Screening L929 Fibroblasts. It counts as cell-based. To be noted: mouse, read-out: 50% Maximal Effect Concentration (AC50). An excerpt: (§1) The cytotoxicity screening panel included cell count, nuclear size, DNA structure, cell membrane permeability, mitochondrial mass, mitochondrial membrane potential, and cytochrome C release.
The next series concerns L929 Fibroblasts. Kind of series: Cytotoxicity Screening L929 Fibroblasts. Type of series: cell-based.
Source text: as §1

[5] abbreviates: Original analysis, read-out: JAK3 IC50 (uM) Original.
Where [6] appears, read: Table 3, first session (before /), read-out: JAK3 biochemical IC50.
[7] abbreviates: Table 3, second session (after /), read-out: JAK3 biochemical IC50.
Where [8] appears, read: re-test, read-out: JAK3 IC50 (uM) re-test.
Where [9] appears, read: Original analysis, read-out: JAK1 IC50 (uM) Original.
Setting [10] is: re-test, read-out: JAK1 IC50 (uM) re-test.

JAK1, sequence (P23458 whole entry, species assumed): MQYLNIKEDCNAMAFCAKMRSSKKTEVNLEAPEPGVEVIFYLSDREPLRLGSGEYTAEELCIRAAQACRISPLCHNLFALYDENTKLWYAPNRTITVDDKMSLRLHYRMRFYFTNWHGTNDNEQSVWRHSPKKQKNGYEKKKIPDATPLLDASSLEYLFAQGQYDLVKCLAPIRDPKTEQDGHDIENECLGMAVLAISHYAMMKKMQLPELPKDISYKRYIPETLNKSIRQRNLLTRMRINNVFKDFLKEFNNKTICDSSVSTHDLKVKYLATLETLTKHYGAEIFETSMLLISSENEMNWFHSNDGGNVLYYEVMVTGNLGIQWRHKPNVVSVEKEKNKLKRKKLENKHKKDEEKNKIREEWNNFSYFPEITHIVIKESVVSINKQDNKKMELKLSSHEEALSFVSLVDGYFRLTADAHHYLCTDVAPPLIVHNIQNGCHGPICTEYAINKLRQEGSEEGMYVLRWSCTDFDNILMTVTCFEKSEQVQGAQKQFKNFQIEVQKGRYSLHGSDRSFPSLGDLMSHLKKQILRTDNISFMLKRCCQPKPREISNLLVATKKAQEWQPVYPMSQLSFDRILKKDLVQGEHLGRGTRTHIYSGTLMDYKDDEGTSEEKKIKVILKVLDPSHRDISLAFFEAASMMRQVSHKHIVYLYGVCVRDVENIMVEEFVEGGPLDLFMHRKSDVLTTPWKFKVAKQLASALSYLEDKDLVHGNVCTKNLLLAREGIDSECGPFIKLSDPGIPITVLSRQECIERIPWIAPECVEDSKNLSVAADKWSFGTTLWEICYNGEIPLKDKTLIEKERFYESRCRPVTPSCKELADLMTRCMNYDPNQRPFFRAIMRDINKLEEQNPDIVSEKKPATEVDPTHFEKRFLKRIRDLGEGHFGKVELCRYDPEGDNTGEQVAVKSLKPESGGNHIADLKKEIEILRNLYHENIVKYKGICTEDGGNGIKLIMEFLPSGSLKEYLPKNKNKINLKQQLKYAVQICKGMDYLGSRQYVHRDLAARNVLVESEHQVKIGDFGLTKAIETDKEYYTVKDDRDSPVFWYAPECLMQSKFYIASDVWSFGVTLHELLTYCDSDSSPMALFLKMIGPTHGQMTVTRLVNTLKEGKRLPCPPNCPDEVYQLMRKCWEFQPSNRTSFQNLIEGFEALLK
CYP2C19, sequence (P33261 whole entry): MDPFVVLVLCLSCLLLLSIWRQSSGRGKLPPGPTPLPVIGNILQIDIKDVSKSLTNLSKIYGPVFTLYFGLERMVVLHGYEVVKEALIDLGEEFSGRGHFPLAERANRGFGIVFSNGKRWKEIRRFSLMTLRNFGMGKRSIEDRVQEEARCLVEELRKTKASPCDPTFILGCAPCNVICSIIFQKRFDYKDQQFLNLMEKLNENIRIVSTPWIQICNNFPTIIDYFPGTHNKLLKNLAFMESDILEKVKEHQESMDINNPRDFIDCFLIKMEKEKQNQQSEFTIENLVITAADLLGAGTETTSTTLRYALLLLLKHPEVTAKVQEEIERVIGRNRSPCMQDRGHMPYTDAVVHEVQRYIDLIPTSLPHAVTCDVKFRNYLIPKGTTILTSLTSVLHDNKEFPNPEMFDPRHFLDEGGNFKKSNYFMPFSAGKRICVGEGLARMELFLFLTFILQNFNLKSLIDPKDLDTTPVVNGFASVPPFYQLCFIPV
EGFR (G719C), sequence (P00533 25-1210 G719C): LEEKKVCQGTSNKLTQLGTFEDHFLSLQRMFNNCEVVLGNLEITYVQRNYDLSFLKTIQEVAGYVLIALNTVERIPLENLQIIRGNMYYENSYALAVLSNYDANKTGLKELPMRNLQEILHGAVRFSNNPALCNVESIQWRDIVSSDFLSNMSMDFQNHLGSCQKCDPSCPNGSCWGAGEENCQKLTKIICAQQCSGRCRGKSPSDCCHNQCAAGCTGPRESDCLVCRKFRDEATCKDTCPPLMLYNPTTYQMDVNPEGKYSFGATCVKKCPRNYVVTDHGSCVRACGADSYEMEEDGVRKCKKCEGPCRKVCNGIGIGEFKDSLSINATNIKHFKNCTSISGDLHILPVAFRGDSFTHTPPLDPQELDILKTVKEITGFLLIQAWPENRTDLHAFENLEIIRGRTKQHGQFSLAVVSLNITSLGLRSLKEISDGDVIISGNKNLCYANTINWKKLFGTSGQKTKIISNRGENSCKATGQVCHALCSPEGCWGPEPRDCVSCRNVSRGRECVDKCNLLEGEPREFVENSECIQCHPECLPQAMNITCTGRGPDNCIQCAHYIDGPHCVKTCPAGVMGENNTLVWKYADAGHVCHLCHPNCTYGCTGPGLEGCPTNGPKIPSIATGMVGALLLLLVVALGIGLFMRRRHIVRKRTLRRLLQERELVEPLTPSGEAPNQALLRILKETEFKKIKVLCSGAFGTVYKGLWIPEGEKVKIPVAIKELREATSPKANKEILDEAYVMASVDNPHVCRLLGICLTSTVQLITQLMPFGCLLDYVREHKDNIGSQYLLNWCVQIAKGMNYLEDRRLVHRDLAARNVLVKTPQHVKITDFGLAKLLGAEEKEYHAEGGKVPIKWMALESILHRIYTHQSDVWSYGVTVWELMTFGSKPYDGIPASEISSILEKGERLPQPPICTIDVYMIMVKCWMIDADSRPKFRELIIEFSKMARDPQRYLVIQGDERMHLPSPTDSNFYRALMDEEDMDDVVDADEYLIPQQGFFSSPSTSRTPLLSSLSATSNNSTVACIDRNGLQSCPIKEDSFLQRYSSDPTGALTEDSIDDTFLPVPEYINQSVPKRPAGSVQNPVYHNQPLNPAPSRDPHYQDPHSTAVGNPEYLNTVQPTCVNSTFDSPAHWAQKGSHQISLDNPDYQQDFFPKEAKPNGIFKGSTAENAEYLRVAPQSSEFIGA

Broadly, the IC50 is the concentration that inhibits the measured activity by half. Usually fraction unbound stands for the share of the substance not bound to proteins or other matrix. A low value points to extensive binding. Consider `C=CC(=O)Nc1cc(CN2CCN(C)C(=O)C2)cc(-c2cnc3ccccc3n2)c1` [Compound 1a], for which the 50% inhibitory concentration (IC50) on JAK3 [1] (setting [5]) was 0.013 µM; at JAK3 [1] (setting [6]), 0.013 µM; on JAK3 [1] (setting [7]), 0.01 µM; on JAK3 [1] (setting [8]), 0.01 µM; on JAK1 (setting [9]) it was no less than 100 µM; at JAK1 (setting [10]), no less than 100 µM. Also, the IC50 on EGFR (G719C) is 66.1 nM; against ITK, 72.1 nM; at JAK3 [2] it was 1.57 nM; against CYP2C19 (first session (before /)) it was greater than 100 µM; at CYP2C19 (second session (after /)), 90 µM. Besides, the “JAK3 selectivity vs. STAT5” value at JAK3 [1] was “(178X)*”. Moreover, the “selectivity for JAK3 compared to JAK1, JAK2, and TYK2 (in words)” value (shortened to “selectivity for JAK3 compared to JAK1”) at JAK3 [1] is “highly selective for JAK3”. In series [3], this molecule showed a fraction unbound of 0.034. Moreover, in series [4], the AC50 is 20000 nM. For the same molecule, in the series on L929 Fibroblasts, the “Minimal Effective Concentration (MEC, uM)” value came out at 9 µM.
In the case of `C=CC(=O)Nc1cc(CN2CCNC(=O)C2)cc(-c2cnc3ccccc3n2)c1` [Compound 1b, N-[3-[(3-oxopiperazin-1-yl)methyl]-5-quinoxalin-2-yl-phenyl] prop-2-enamide], the IC50 was 0.018 µM on JAK3 [1] (setting [5]); 0.018 µM at JAK3 [1] (setting [6]); 0.018 µM at JAK3 [1] (setting [7]); 0.018 µM at JAK3 [1] (setting [8]); no less than 100 µM at JAK1 (setting [9]); no less than 100 µM at JAK1 (setting [10]). In addition, the 50% inhibitory concentration (IC50) against EGFR (G719C) was 193 nM; on ITK it was 68 nM; against JAK3 [2], 0.972 nM; against CYP2C19 (first session (before /)) it was greater than 100 µM; against CYP2C19 (second session (after /)), greater than 100 µM. At JAK3 [1], the “JAK3 selectivity vs. STAT5” value is “(392X)*”. In addition, the “selectivity for JAK3 compared to JAK1” value at JAK3 [1] was “highly selective for JAK3”. In addition, in series [3], the fraction unbound was 0.059. Also, in series [4], the AC50 came out at 45000 nM. Further, the “Minimal Effective Concentration (MEC, uM)” value in the series on L929 Fibroblasts was 20 µM.
For `C=CC(=O)Nc1cc(CC(=O)OC)cc(-c2cnc3ccccc3n2)c1` [Compound 2], the IC50 at JAK3 [1] (setting [5]) was 0.013 µM; on JAK3 [1] (setting [6]), 0.015 µM; on JAK3 [1] (setting [7]), 0.007 µM; at JAK3 [1] (setting [8]), 0.007 µM; at JAK1 (setting [9]) it was no less than 100 µM; on JAK1 (setting [10]) it was no less than 100 µM. Also, the IC50 is 423 nM against EGFR (G719C); 34.9 nM against ITK; 1.19 nM against JAK3 [2]; greater than 100 µM at CYP2C19 (first session (before /)); 95 µM at CYP2C19 (second session (after /)). Further, the “JAK3 selectivity vs. STAT5” value on JAK3 [1] was “(370X)*”. In addition, the “selectivity for JAK3 compared to JAK1” value at JAK3 [1] is recorded as “highly selective for JAK3”. In [4], the AC50 amounted to 18000 nM. Moreover, the “Minimal Effective Concentration (MEC, uM)” value with L929 Fibroblasts is 2 µM.
Turning to `C=CC(=O)Nc1cc(NS(C)(=O)=O)cc(-c2cnc3ccccc3n2)c1` [Compound 3], the 50% inhibitory concentration (IC50) on JAK3 [1] (setting [5]) is 0.016 µM; on JAK3 [1] (setting [6]), 0.016 µM; at JAK3 [1] (setting [7]), 0.023 µM; on JAK3 [1] (setting [8]), 0.023 µM; on JAK1 (setting [9]), no less than 100 µM; on JAK1 (setting [10]), no less than 100 µM. Besides, the IC50 against ITK is 278 nM; against JAK3 [2] it was 24.9 nM; at CYP2C19 (first session (before /)) it was greater than 100 µM; against CYP2C19 (second session (after /)), 59 µM. The “JAK3 selectivity vs. STAT5” value on JAK3 [1] was “(382X)*”. Moreover, the “selectivity for JAK3 compared to JAK1” value on JAK3 [1] is on record as “highly selective for JAK3”. In [3], this molecule showed a fraction unbound of 0.147. The AC50 in [4] is 20000 nM. Further, the “Minimal Effective Concentration (MEC, uM)” value with L929 Fibroblasts was 10 µM.
